Measurements: PubChem BioAssay (NCI)
Values joined by “and” are separate entries in the source; they are usually repeats but may differ in a detail not shown here. Equal entries are not always repeated.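 Assay format: 96-well plates, 48-hour exposure. At the GI50, growth is halved. The concentration for full growth arrest is given as TGI.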

What was measured:
Test in all cases: DTP human tumour cell line panel, 48 h
[1] = test system: 786-0 renal
[2] = test system: A498 renal
[3] = test system: A549 NSCLC
[4] = test system: ACHN renal
[5] = test system: BT-549 breast
[6] = test system: CAKI-1 renal
[7] = test system: CCRF-CEM leukemia
[8] = test system: COLO 205 colon
[9] = test system: DU-145 prostate
[10] = test system: EKVX NSCLC
[11] = test system: HCC-2998 colon
[12] = test system: HCT-116 colon
[13] = test system: HCT-15 colon
[14] = test system: HL-60(TB) leukemia
[15] = test system: HOP-62 NSCLC
[16] = test system: HOP-92 NSCLC
[17] = test system: HS 578T breast
[18] = test system: HT29 colon
[19] = test system: IGROV1 ovarian
[20] = test system: K-562 leukemia
[21] = test system: KM12 colon
[22] = test system: LOX IMVI melanoma
[23] = test system: M14 melanoma
[24] = test system: MALME-3M melanoma
[25] = test system: MCF7 breast
[26] = test system: MDA-MB-231 breast
[27] = test system: MDA-MB-435
[28] = test system: MOLT-4 leukemia
[29] = test system: NCI-H226 lung
[30] = test system: NCI-H23 lung
[31] = test system: NCI-H460 lung
[32] = test system: NCI-H522 lung
[33] = test system: NCI/ADR-RES ovarian
[34] = test system: OVCAR-3 ovarian
[35] = test system: OVCAR-4 ovarian
[36] = test system: OVCAR-5 ovarian
[37] = test system: OVCAR-8 ovarian
[38] = test system: PC-3 prostate
[39] = test system: RPMI-8226 leukemia
[40] = test system: RXF 393 renal
[41] = test system: SF-268 CNS
[42] = test system: SF-295 CNS
[43] = test system: SF-539 CNS
[44] = test system: SK-MEL-2 melanoma
[45] = test system: SK-MEL-28 melanoma
[46] = test system: SK-MEL-5 melanoma
[47] = test system: SK-OV-3 ovarian
[48] = test system: SN12C renal
[49] = test system: SNB-19 CNS
[50] = test system: SNB-75 CNS
[51] = test system: SR leukemia
[52] = test system: SW-620 colon
[53] = test system: T-47D breast
[54] = test system: TK-10 renal
[55] = test system: U251 CNS
[56] = test system: UACC-257 melanoma
[57] = test system: UACC-62 melanoma
[58] = test system: UO-31 renal

Structure (SMILES): FC(F)(F)c1ccc(CNc2ccc(Cc3c[nH]c4ncc(Cl)cc34)cn2)cn1
- GI50 [1]: 5.33 µM and 4.19 µM
- TGI [1]: 19.5 µM and > 10 µM
- GI50 [2]: 2.08 µM and 4.41 µM
- TGI [2]: 14 µM and > 10 µM
- GI50 [3]: 10.5 µM and > 10 µM
- TGI [3]: 32.2 µM and > 10 µM
- GI50 [4]: 13.2 µM and > 10 µM
- TGI [4]: 36 µM and > 10 µM
- GI50 [5]: 14.5 µM and > 10 µM
- TGI [5]: 34.4 µM and > 10 µM
- GI50 [6]: 10.3 µM and > 10 µM
- TGI [6]: 30.8 µM and > 10 µM
- GI50 [7]: 13.9 µM and 6.85 µM
- TGI [7]: 70.6 µM and > 10 µM
- GI50 [8]: 5.58 µM and > 10 µM
- TGI [8]: 20.6 µM and > 10 µM
- GI50 [9]: 12.4 µM and > 10 µM
- TGI [9]: 33.6 µM and > 10 µM
- GI50 [10]: 7.89 µM and > 10 µM
- TGI [10]: 43.5 µM and > 10 µM
- GI50 [11]: 12.5 µM and > 10 µM
- TGI [11]: 30.3 µM and > 10 µM
- GI50 [12]: 12.3 µM and > 10 µM
- TGI [12]: 27.4 µM and > 10 µM
- GI50 [13]: 10.1 µM and > 10 µM
- TGI [13]: 27.1 µM and > 10 µM
- GI50 [14]: 16.5 µM and > 10 µM
- TGI [14]: 49.4 µM and > 10 µM
- GI50 [15]: 11.4 µM and > 10 µM
- TGI [15]: 29.4 µM and > 10 µM
- GI50 [16]: 9.46 µM and 3.77 µM
- TGI [16]: 28.6 µM and > 10 µM
- GI50 [17]: 3.33 µM and 2.55 µM
- TGI [17]: 32.2 µM and > 10 µM
- GI50 [18]: 4.89 µM and > 10 µM
- TGI [18]: 17.3 µM and > 10 µM
- GI50 [19]: 12.2 µM and > 10 µM
- TGI [19]: 40.7 µM and > 10 µM
- GI50 [20]: 7.27 µM and 8.71 µM
- TGI [20]: 44.8 µM and > 10 µM
- GI50 [21]: 3.53 µM and 3.56 µM
- TGI [21]: 15.3 µM and > 10 µM
- GI50 [22]: 11.5 µM and > 10 µM
- TGI [22]: 26.3 µM and > 10 µM
- GI50 [23]: 4.62 µM and > 10 µM
- TGI [23]: 19.2 µM and > 10 µM
- GI50 [24]: 12.3 µM and > 10 µM
- TGI [24]: 30.7 µM and > 10 µM
- GI50 [25]: 6.34 µM and > 10 µM
- TGI [25]: 33.6 µM and > 10 µM
- GI50 [26]: 8.7 µM and > 10 µM
- TGI [26]: 26.1 µM and > 10 µM
- GI50 [27]: 5.92 µM and > 10 µM
- TGI [27]: 22.7 µM and > 10 µM
- GI50 [28]: 4.02 µM and 3.28 µM
- TGI [28]: 21.9 µM and > 10 µM
- GI50 [29]: 4.91 µM and 3.94 µM
- TGI [29]: 27.2 µM and > 10 µM
- GI50 [30]: 10.3 µM and > 10 µM
- TGI [30]: 32 µM and > 10 µM
- GI50 [31]: 12.9 µM and > 10 µM
- TGI [31]: 30 µM and > 10 µM
- GI50 [32]: 10.5 µM and > 10 µM
- TGI [32]: 29.3 µM and > 10 µM
- GI50 [33]: 7.68 µM and > 10 µM
- TGI [33]: 38.7 µM and > 10 µM
- GI50 [34]: 14.4 µM and > 10 µM
- TGI [34]: 33.7 µM and > 10 µM
- GI50 [35]: 3.6 µM and 6.33 µM
- TGI [35]: 19.2 µM and > 10 µM
- GI50 [36]: 23 µM and > 10 µM
- TGI [36]: 50.8 µM and > 10 µM
- GI50 [37]: 5.34 µM and > 10 µM
- TGI [37]: 28.6 µM and > 10 µM
- GI50 [38]: 9.65 µM and > 10 µM
- TGI [38]: 34 µM and > 10 µM
- GI50 [39]: 5.76 µM and 5.99 µM
- TGI [39]: 44.2 µM and > 10 µM
- GI50 [40]: 9.75 µM and > 10 µM
- TGI [40]: 25.8 µM and > 10 µM
- GI50 [41]: 6.25 µM and > 10 µM
- TGI [41]: 29.3 µM and > 10 µM
- GI50 [42]: 4.83 µM and 5.24 µM
- TGI [42]: 24.4 µM and > 10 µM
- GI50 [43]: 10.6 µM and 8.14 µM
- TGI [43]: 24.4 µM and > 10 µM
- GI50 [44]: 17.6 µM and > 10 µM
- TGI [44]: 37.2 µM and > 10 µM
- GI50 [45]: 13.2 µM and > 10 µM
- TGI [45]: 30.2 µM and > 10 µM
- GI50 [46]: 5.49 µM and 4.3 µM
- TGI [46]: 19.2 µM and > 10 µM
- GI50 [47]: 8.8 µM and > 10 µM
- TGI [47]: 32.5 µM and > 10 µM
- GI50 [48]: 13.9 µM and > 10 µM
- TGI [48]: 30.6 µM and > 10 µM
- GI50 [49]: 10.8 µM and > 10 µM
- TGI [49]: 37.2 µM and > 10 µM
- GI50 [50]: 2.2 µM and 2.48 µM
- TGI [50]: 13.6 µM and > 10 µM
- GI50 [51]: 6.13 µM and 6.63 µM
- TGI [51]: 42.2 µM and > 10 µM
- GI50 [52]: 10.6 µM and > 10 µM
- TGI [52]: 26.8 µM and > 10 µM
- GI50 [53]: 4.36 µM and 4.5 µM
- TGI [53]: 28.3 µM and > 10 µM
- GI50 [54]: 13.5 µM and > 10 µM
- TGI [54]: 36.4 µM and > 10 µM
- GI50 [55]: 10.1 µM and > 10 µM
- TGI [55]: 24.8 µM and > 10 µM
- GI50 [56]: 11.5 µM and > 10 µM
- TGI [56]: 25.8 µM and > 10 µM
- GI50 [57]: 8.56 µM
- TGI [57]: 25 µM
- GI50 [58]: 3.78 µM and 6.32 µM
- TGI [58]: 17.7 µM and > 10 µM
